How the values were obtained:
Assay in all cases: relative viability (nuclei count vs DMSO), 5 days (fraction); higher = more cells survive
[1] = system: BEN
Summary of the method: (§1)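 Dosing by pin tool came one day after lung cancer cell lines were seeded in 1536-well plates, using either one drug or a fixed anchor-drug dose plus five library-drug doses (not always all listed) in √10 steps. After 5 days, nuclei were counted on 4× images. Relative viability is treated-well nuclei count divided by vehicle-well nuclei count, and values are medians of duplicate plates.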

[2] = system: NCI-H1437
Summary of the method: as §1

[3] = system: COR-L23
Summary of the method: as §1

[4] = system: HARA
Summary of the method: as §1

[5] = system: NCI-H2170
Summary of the method: as §1

[6] = system: LK-2
Summary of the method: as §1

[7] = system: PC-14
Summary of the method: as §1

[8] = system: NCI-H3122
Summary of the method: as §1

[9] = system: NCI-H441
Summary of the method: as §1

[10] = system: NCI-H1666
Summary of the method: as §1

[11] = system: CAL-12T
Summary of the method: as §1

In the case of `C=C1C(=O)O[C@@H](CCCCCCCC)[C@@H]1C(=O)O` [C-75] + CCNC(=O)c1noc(-c2cc(C(C)C)c(O)cc2O)c1-c1ccc(CN2CCOCC2)cc1 [Luminespib] (partner 0.01 µM), the relative viability ([1]; first compound 0.08 µM) is reported as 0.351, the relative viability ([1]; first compound 0.253 µM) is reported as 0.302 and the relative viability ([1]; first compound 0.8 µM) is reported as 0.302. The relative viability ([1]; first compound 8 µM) was 0.181, the relative viability ([2]; first compound 0.08 µM) was 1.15 and the relative viability ([2]; first compound 0.253 µM) was 1.27. The relative viability ([2]; first compound 0.8 µM) was 1.11, the relative viability ([2]; first compound 2.53 µM) was 1.13 and the relative viability ([2]; first compound 8 µM) was 1.12. The relative viability ([3]; first compound 0.08 µM) was 0.63, the relative viability ([3]; first compound 0.253 µM) was 0.706 and the relative viability ([3]; first compound 0.8 µM) was 0.682. The relative viability ([3]; first compound 2.53 µM) was 0.66, the relative viability ([3]; first compound 8 µM) was 0.559 and the relative viability ([4]; first compound 0.08 µM) was 0.684. It also gave a relative viability ([4]; first compound 0.253 µM) of 0.684, a relative viability ([4]; first compound 0.8 µM) of 0.683 and a relative viability ([4]; first compound 2.53 µM) of 0.712. For the same molecule, the relative viability ([4]; first compound 8 µM) was 0.612, the relative viability ([5]; first compound 0.08 µM) was 0.551 and the relative viability ([5]; first compound 0.253 µM) was 0.599. It also gave a relative viability ([5]; first compound 0.8 µM) of 0.785, a relative viability ([5]; first compound 2.53 µM) of 0.407 and a relative viability ([5]; first compound 8 µM) of 0.669. For the same molecule, the relative viability ([6]; first compound 0.08 µM) was 0.193, the relative viability ([6]; first compound 0.253 µM) was 0.195 and the relative viability ([6]; first compound 0.8 µM) was 0.191. It also gave a relative viability ([6]; first compound 2.53 µM) of 0.185, a relative viability ([6]; first compound 8 µM) of 0.202 and a relative viability ([7]; first compound 0.08 µM) of 0.158. For the same molecule, the relative viability ([7]; first compound 0.253 µM) was 0.171, the relative viability ([7]; first compound 0.8 µM) was 0.151 and the relative viability ([7]; first compound 2.53 µM) was 0.142. For the same molecule, the relative viability ([7]; first compound 8 µM) was 0.152, the relative viability ([8]; first compound 0.08 µM) was 0.0952 and the relative viability ([8]; first compound 0.253 µM) was 0.128. The relative viability ([8]; first compound 0.8 µM) was 0.0733, the relative viability ([8]; first compound 2.53 µM) was 0.0938 and the relative viability ([8]; first compound 8 µM) was 0.131. For the same molecule, the relative viability ([9]; first compound 0.08 µM) was 0.329, the relative viability ([9]; first compound 0.253 µM) was 0.453 and the relative viability ([9]; first compound 0.8 µM) was 0.295. The relative viability ([9]; first compound 2.53 µM) was 0.518, the relative viability ([9]; first compound 8 µM) was 0.305 and the relative viability ([10]; first compound 0.08 µM) was 0.961. The relative viability ([10]; first compound 0.253 µM) was 1.04, the relative viability ([10]; first compound 0.8 µM) was 1 and the relative viability ([10]; first compound 2.53 µM) was 0.934. For the same molecule, the relative viability ([10]; first compound 8 µM) was 0.827, the relative viability ([11]; first compound 0.08 µM) was 0.898 and the relative viability ([11]; first compound 0.253 µM) was 0.365. It also gave a relative viability ([11]; first compound 0.8 µM) of 0.178.

From the supplement of paper PMC10307832
